In ChEMBL document CHEMBL1201862, “PubChem BioAssay data set” (2004):
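96-well plates; 48 h exposure; 5 concentrations. Endpoints by linear interpolation between flanking doses. Not reached: highest tested concentration assigned. GI50 is the concentration that inhibits growth by half.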 Activity calls are given as the source filed them. No stated cut-off is given here; in the data, active = GI50 up to about 1.1 µM and inactive = higher.

Assays:
Assay in all cases: growth of human tumour cells (NCI), 48 h
[1] = system: A549
[2] = system: NCI-H23
[3] = system: KM12
[4] = system: SF-295
[5] = system: SR
[6] = system: HT-29
[7] = system: SNB-19
[8] = system: UACC-257
[9] = system: SF-539
[10] = system: SN12C
[11] = system: EKVX
[12] = system: Malme-3M
[13] = system: NCI-H460
[14] = system: UO-31
[15] = system: SK-MEL-2
[16] = system: HCT-116
[17] = system: MCF7
[18] = system: PC-3
[19] = system: DU-145
[20] = system: NCI/ADR-RES

Compound | GI50 [1] | GI50 [2] | GI50 [3] | GI50 [4] | GI50 [5] | GI50 [6] | GI50 [7] | GI50 [8] | GI50 [9] | GI50 [10] | GI50 [11] | GI50 [12] | GI50 [13] | GI50 [14] | GI50 [15] | GI50 [16] | GI50 [17] | GI50 [18] | GI50 [19] | GI50 [20]
CC1(Cc2ccccc2)NC(=S)NC1=O (centres undefined) | > 100 µM (inactive) | > 100 µM (inactive) | > 100 µM (inactive) | > 100 µM (inactive) | > 100 µM (inactive) | > 100 µM (inactive) | > 100 µM (inactive) | > 100 µM (inactive) | > 100 µM (inactive) | > 100 µM (inactive) | > 100 µM (inactive) | > 100 µM (inactive) | > 100 µM (inactive) | > 100 µM (inactive) | > 100 µM (inactive) | – | – | – | – | –
O=C(CSc1nnc(-c2ccc(/N=C\c3ccc(Cl)cc3)cc2)o1)Nc1ccc([N+](=O)[O-])cc1 | 39.9 µM (inactive) | 19.4 µM (inactive) | > 10 µM (inactive) | 30.2 µM (inactive) | 19 µM (inactive) | 19.5 µM (inactive) | 16.6 µM (inactive) | 21.5 µM (inactive) | – | 21.7 µM (inactive) | > 100 µM (inactive) | 92.3 µM (inactive) | 36.4 µM (inactive) | 18.4 µM (inactive) | 25.4 µM (inactive) | 2.58 µM (inactive) | – | – | – | –
CCOC(=O)C1(C)CCc2sc(N)c(C#N)c21 (centres undefined) | > 100 µM (inactive) | > 100 µM (inactive) | > 100 µM (inactive) | – | – | > 100 µM (inactive) | > 100 µM (inactive) | > 100 µM (inactive) | – | > 100 µM (inactive) | > 100 µM (inactive) | > 100 µM (inactive) | > 100 µM (inactive) | > 100 µM (inactive) | > 100 µM (inactive) | > 100 µM (inactive) | > 100 µM (inactive) | > 100 µM (inactive) | – | –
O=C(CSc1nnc(-c2ccc(/N=C\c3ccc(Cl)cc3)cc2)o1)Nc1cccc([N+](=O)[O-])c1 | > 100 µM (inactive) | > 100 µM (inactive) | > 100 µM (inactive) | > 100 µM (inactive) | > 100 µM (inactive) | > 100 µM (inactive) | > 100 µM (inactive) | > 100 µM (inactive) | – | > 100 µM (inactive) | > 100 µM (inactive) | > 100 µM (inactive) | > 100 µM (inactive) | > 100 µM (inactive) | > 100 µM (inactive) | > 100 µM (inactive) | – | – | – | –
CCCCOC(=O)c1cc(C(=CCC[C@H]2CC[C@@]3(C)[C@@H](CC[C@@H]4[C@@H]3CC[C@]3(C)[C@@H](C(C)CCCC(C)C)CC[C@@H]43)C2)c2cc(Cl)c(O)c(C(=O)OCCCC)c2)cc(Cl)c1O (some centres undefined) | – | > 50 µM (inactive) | > 50 µM (inactive) | – | – | > 50 µM (inactive) | > 50 µM (inactive) | – | – | > 50 µM (inactive) | > 50 µM (inactive) | – | > 50 µM (inactive) | – | > 50 µM (inactive) | > 50 µM (inactive) | – | > 50 µM (inactive) | > 50 µM (inactive) | > 50 µM (inactive)
C=C(C)[C@@H]1CC[C@]2(COC(C)=O)CC[C@]3(C)[C@H](CC[C@@H]4[C@@]5(C)CC[C@H](OC(C)=O)C(C)(C)[C@@H]5CC[C@]43C)[C@@H]12 [BETULIN DIACETATE] | > 50 µM (inactive) | > 50 µM (inactive) | – | – | > 50 µM (inactive) | > 50 µM (inactive) | > 50 µM (inactive) | > 50 µM (inactive) | > 50 µM (inactive) | > 50 µM (inactive) | – | – | – | > 50 µM (inactive) | > 50 µM (inactive) | > 50 µM (inactive) | – | > 50 µM (inactive) | – | > 50 µM (inactive)
O=C(c1ccccc1)C(c1ccccc1)C1(O)C(=O)Nc2ccc(Br)cc21 (centres undefined) | > 100 µM (inactive) | 50.4 µM (inactive) | 95.3 µM (inactive) | > 100 µM (inactive) | 18.7 µM (inactive) | 52 µM (inactive) | > 100 µM (inactive) | 22.3 µM (inactive) | 44.9 µM (inactive) | 35.8 µM (inactive) | 68.2 µM (inactive) | 76.6 µM (inactive) | > 100 µM (inactive) | 63.8 µM (inactive) | 61.1 µM (inactive) | 37.9 µM (inactive) | – | – | – | –
Cc1c(C(=O)C/C(=N/NC(=O)C[N+](C)(C)C)C(=O)Nc2ccc(Cl)cc2)[n+]([O-])c2ccccc2[n+]1[O-] | > 100 µM (inactive) | > 100 µM (inactive) | > 100 µM (inactive) | > 100 µM (inactive) | > 100 µM (inactive) | > 100 µM (inactive) | > 100 µM (inactive) | > 100 µM (inactive) | > 100 µM (inactive) | > 100 µM (inactive) | > 100 µM (inactive) | > 100 µM (inactive) | > 100 µM (inactive) | > 100 µM (inactive) | > 100 µM (inactive) | > 100 µM (inactive) | – | – | – | –
O=C1N(c2ccc(Cl)cc2)C(=O)C2(SC=NN2Cc2ccccc2)N1c1ccc(Cl)cc1 (centres undefined) | 96.4 µM (inactive) | 8.24 µM (inactive) | > 100 µM (inactive) | > 10 µM (inactive) | 9.95 µM (inactive) | > 100 µM (inactive) | > 100 µM (inactive) | > 100 µM (inactive) | 34.3 µM (inactive) | > 100 µM (inactive) | > 100 µM (inactive) | > 100 µM (inactive) | > 100 µM (inactive) | > 100 µM (inactive) | – | 9.18 µM (inactive) | – | – | – | –
O=c1[nH]c(=O)n(C2OC(COP(=O)(O)OP(=O)(O)OC3OC(CO)C(O)C(O)C3O)C(O)C2O)cc1F (centres undefined) | 0.0149 µM (active) | 0.147 µM (active) | 0.0317 µM (active) | 0.127 µM (active) | 0.0418 µM (active) | 0.0582 µM (active) | 0.156 µM (active) | 0.615 µM (active) | 0.0552 µM (active) | 0.0809 µM (active) | 1.12 µM (inactive) | 0.21 µM (active) | < 0.014 µM (active) | 0.04 µM (active) | 0.486 µM (active) | < 0.0129 µM (active) | – | – | – | –
COc1cccc(N2C(=O)/C(=C/c3ccc(N(CCC#N)CCC#N)cc3)N=C2c2cc([N+](=O)[O-])ccc2Cl)c1 | – | 89.1 µM (inactive) | 49.5 µM (inactive) | 19.7 µM (inactive) | 32.1 µM (inactive) | 47 µM (inactive) | > 100 µM (inactive) | > 100 µM (inactive) | > 100 µM (inactive) | 87.7 µM (inactive) | – | > 100 µM (inactive) | 43.5 µM (inactive) | 82 µM (inactive) | > 100 µM (inactive) | – | – | – | – | –
Nc1c(C(=O)Nc2ccccc2O)[n+]([O-])c2ccccc2[n+]1[O-] | 36.1 µM (inactive) | 23.9 µM (inactive) | 79.3 µM (inactive) | 58.9 µM (inactive) | 44.3 µM (inactive) | > 100 µM (inactive) | > 100 µM (inactive) | 18.8 µM (inactive) | 32.3 µM (inactive) | 63.2 µM (inactive) | > 100 µM (inactive) | 83.9 µM (inactive) | 27 µM (inactive) | 37.5 µM (inactive) | 40.2 µM (inactive) | 31.7 µM (inactive) | – | – | – | –
C/C(=N\NC(=S)NC(CCC(=O)O)C(=O)O)c1ccccn1 (centres undefined) | > 100 µM (inactive) | > 100 µM (inactive) | > 100 µM (inactive) | > 100 µM (inactive) | > 100 µM (inactive) | > 100 µM (inactive) | > 100 µM (inactive) | > 100 µM (inactive) | > 100 µM (inactive) | > 100 µM (inactive) | > 100 µM (inactive) | > 100 µM (inactive) | > 100 µM (inactive) | > 100 µM (inactive) | > 100 µM (inactive) | > 100 µM (inactive) | – | – | – | –
C=C1CC[C@]2(C)[C@H](CC[C@@]34C[C@@H](CC[C@H]32)[C@@H](C(=O)O)C4)C1(C)C | 5.22 µM (inactive) | > 12.5 µM (inactive) | > 12.5 µM (inactive) | 8.24 µM (inactive) | 6.37 µM (inactive) | 5.35 µM (inactive) | > 12.5 µM (inactive) | > 12.5 µM (inactive) | 6.19 µM (inactive) | > 12.5 µM (inactive) | > 12.5 µM (inactive) | > 12.5 µM (inactive) | 5.19 µM (inactive) | 7.28 µM (inactive) | > 12.5 µM (inactive) | > 12.5 µM (inactive) | > 12.5 µM (inactive) | 10.3 µM (inactive) | – | > 12.5 µM (inactive)
O=C(Nc1ccccc1)OCc1nc2c([nH]1)C(=O)C=CC2=O | 16.4 µM (inactive) | 19.4 µM (inactive) | 15.6 µM (inactive) | 18.6 µM (inactive) | 19.5 µM (inactive) | 27.5 µM (inactive) | 13.8 µM (inactive) | 3.42 µM (inactive) | > 100 µM (inactive) | 17.2 µM (inactive) | 20.7 µM (inactive) | 6.4 µM (inactive) | 19.8 µM (inactive) | 16.8 µM (inactive) | 19.8 µM (inactive) | 14.9 µM (inactive) | – | – | – | –
CN(C)C(=S)Nc1nnc(NC23CC4CC(CC(C4)C2)C3)s1.[O-][Cl+3]([O-])([O-])O | 12.4 µM (inactive) | 10 µM (inactive) | 18.7 µM (inactive) | 13.8 µM (inactive) | 15.9 µM (inactive) | 5.81 µM (inactive) | 18.3 µM (inactive) | 14.5 µM (inactive) | 10 µM (inactive) | 15.3 µM (inactive) | 23 µM (inactive) | 17.3 µM (inactive) | 12.6 µM (inactive) | 12.4 µM (inactive) | 18.5 µM (inactive) | 13.3 µM (inactive) | – | – | – | –
COC(=O)/C(=N\NC(=O)c1ccccc1O)C(C#N)c1ccc(Cl)cc1 (centres undefined) | 3.85 µM (inactive) | 24.4 µM (inactive) | 43.6 µM (inactive) | 30.5 µM (inactive) | 37.3 µM (inactive) | 74.1 µM (inactive) | – | 31.5 µM (inactive) | 9.29 µM (inactive) | 45.5 µM (inactive) | 15.6 µM (inactive) | 26.1 µM (inactive) | 39 µM (inactive) | 16.7 µM (inactive) | 21.7 µM (inactive) | 30.3 µM (inactive) | – | – | – | –
